# ChEMBL document CHEMBL1122072, “Structure-activity correlations of cytochalasins. Novel halogenated and related cytochalasin C and D derivatives” (1982)
# pIC50: −log10 of the molar value.
# System: Ehrlich
# Test: (§1) Evaluated for the inhibition of cell-free gelation in Ehrlich Ascites tumor extracts
# Assay type: functional
# Details: Mus musculus, read-out: ID50 (the source's name)
row,pIC50,SMILES
1,6.13,CC(=O)OC1/C=C\C(C)(O)C(=O)C(C)C/C=C/C2C(O)C(CBr)=C(C)C3C(Cc4ccccc4)NC(=O)C123 (configuration not stated)
2,6.06,CC(=O)OC1/C=C\C(C)(O)C(=O)C(C)C/C=C/C2C(O)C(CN=[N+]=[N-])=C(C)C3C(Cc4ccccc4)NC(=O)C123 (configuration not stated)
3,6.22,CC(=O)OC1/C=C\C(C)(O)C(=O)C(C)C/C=C/C2C(O)C(CI)=C(C)C3C(Cc4ccccc4)NC(=O)C123 (configuration not stated)

row,SMILES,pIC50
1,CC(=O)OC1/C=C\C(C)(O)C(=O)C(C)C/C=C/C2C(O)C(C)=C(C)C3C(Cc4ccccc4)NC(=O)C123 (configuration not stated),6.46
2,C=C1C(C)C2C(Cc3ccccc3)NC(=O)C23C(OC(C)=O)/C=C\C(C)(O)C(=O)C(C)C/C=C/C3C1O (configuration not stated),6.68

# Species on record: Mus musculus
# Test: as §1
# Assay type: functional
# Details: not given
row,SMILES,ID50
1,CC(=O)OC1/C=C\C(C)(O)C(=O)C(C)C/C=C/C2C(O)C(CC#N)=C(C)C3C(Cc4ccccc4)NC(=O)C123 (configuration not stated),7700 nM
2,CC(=O)OC1/C=C\C(C)(O)C(=O)C(C)C/C=C/C2C(O)C(Br)(CBr)C(C)C3C(Cc4ccccc4)NC(=O)C123 (configuration not stated),4500 nM
